Five compounds from article PMC4138267 (Nature chemical biology, 2014) can be followed below.

Type in all cases: cell-based
In experiment [1] the target is human D2 dopamine receptor (D2LR) (Homo sapiens, UniProt P14416). Nature of the experiment: ERK1/2 phosphorylation assay, Flp-In CHO cells expressing D2LR. Conditions: for Logαβ: cooperativity with dopamine.
In experiment [2] the target is N-terminal c-myc-tagged WT D2LR (Homo sapiens, UniProt P14416). The experiment is described as follows: ERK1/2 phosphorylation assay, Flp-In CHO cells, c-myc-tagged WT D2LR. Conditions: pERK1/2, interaction with dopamine.
Chain of N-terminal c-myc-tagged WT D2LR (P14416 whole entry): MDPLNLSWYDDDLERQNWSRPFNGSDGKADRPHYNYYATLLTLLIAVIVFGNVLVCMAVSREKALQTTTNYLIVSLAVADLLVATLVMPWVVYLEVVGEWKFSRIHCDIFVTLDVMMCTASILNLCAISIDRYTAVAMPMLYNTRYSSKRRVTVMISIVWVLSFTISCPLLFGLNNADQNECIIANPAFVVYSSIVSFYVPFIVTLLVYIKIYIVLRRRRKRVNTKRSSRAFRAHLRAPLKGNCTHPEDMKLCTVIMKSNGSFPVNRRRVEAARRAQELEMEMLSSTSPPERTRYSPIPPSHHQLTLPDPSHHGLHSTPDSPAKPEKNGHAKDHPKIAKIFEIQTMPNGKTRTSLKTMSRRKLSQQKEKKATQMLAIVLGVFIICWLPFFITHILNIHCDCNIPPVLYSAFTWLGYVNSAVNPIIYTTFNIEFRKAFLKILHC
The target in experiment [3] is Val91^2.61Ala D2LR (Homo sapiens, UniProt P14416, V91A). Conditions: pERK1/2, interaction with dopamine.
Chain of Val91^2.61Ala D2LR (P14416 whole entry V91A, the tested form may be a part): as the sequence (P14416 whole entry) above, with V91A counted along it
In experiment [4] the target is D2R dimer: WT D2R (protomer A) + D2R-Gqi5 fusion (protomer B) (UniProt P14416+P21279). Nature of the experiment: Aequorin functional complementation assay, WT:WT pair. Conditions: WT:WT complement pair; 100 µM dopamine.
Experiment [5] has as its target D2R dimer: WT D2R (protomer A) + D2-Asp114^3.32Ala-Gqi5 (protomer B) (Homo sapiens, UniProt P14416).
[6] abbreviates: KB, pERK1/2, probe ligand dopamine.

Where two headings read alike, the source gives them in different places.

Chain of human D2 dopamine receptor (D2LR) (P14416 whole entry): as the sequence (P14416 whole entry) above
Chain of D2R dimer: WT D2R (protomer A) + D2-Asp114^3.32Ala-Gqi5 (protomer B) (P14416 1-414 isoform P14416-2): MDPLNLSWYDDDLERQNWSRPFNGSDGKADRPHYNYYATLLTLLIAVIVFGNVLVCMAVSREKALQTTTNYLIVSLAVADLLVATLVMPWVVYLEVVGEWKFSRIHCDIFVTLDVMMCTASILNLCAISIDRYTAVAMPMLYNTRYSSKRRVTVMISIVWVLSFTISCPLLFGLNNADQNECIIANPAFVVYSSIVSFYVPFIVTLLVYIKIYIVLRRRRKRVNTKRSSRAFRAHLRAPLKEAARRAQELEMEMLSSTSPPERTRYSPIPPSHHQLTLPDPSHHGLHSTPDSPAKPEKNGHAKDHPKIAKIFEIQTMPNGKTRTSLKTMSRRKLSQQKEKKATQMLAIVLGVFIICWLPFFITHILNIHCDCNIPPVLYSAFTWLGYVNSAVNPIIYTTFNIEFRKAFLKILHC

In experiment [1], `CC(=O)N[C@H]1CC[C@H](CCN2CCc3ccc(C#N)cc3C2)CC1` [MIPS1059, N-((trans)-4-(2-(7-cyano-3,4-dihydroisoquinolin-2(1H)yl)ethyl)cyclohexyl)acetamide] gave a Kb of 23.4 nM. For the same compound, the “Schild Slope” value in experiment [1] (pERK1/2, probe ligand dopamine) was 1.06 ± 0.04.

Turning to `CCCN1CCc2ccc(C#N)cc2C1` [MIPS1071, 2-propyl-1,2,3,4-tetrahydroisoquinoline-7-carbonitrile], the Kb in experiment [1] (KB, pERK1/2, probe ligand S-3PPP) was 363 nM; in experiment [1] (KB, pERK1/2, probe ligand aripiprazole), 575 nM; in experiment [1] (setting [6]), 380 nM. In experiment [1] (pERK1/2), the Logαβ was 1.00 ± 0.08. The “Schild Slope” value in experiment [1] (pERK1/2, probe ligand S-3PPP) is 1.11 ± 0.18; in experiment [1] (pERK1/2, probe ligand aripiprazole) it was 0.94 ± 0.18.

As for `N#Cc1ccc2c(c1)CCN(CC[C@H]1CC[C@@H](NC(=O)c3cc4ccccc4[nH]3)CC1)C2` [MIPS1217], the Kb in experiment [2] was 195 nM; in experiment [3], 891 nM.

In turn, `N#Cc1ccc2c(c1)CNCC2` [THIQ7C, 1,2,3,4-tetrahydroisoquinoline-7-carbonitrile] showed a Kb in experiment [1] (setting [6]) of 2510 nM. In addition, in experiment [1] (pERK1/2), the Logαβ is on record as 1.03 ± 0.18. For the same compound, the “fold lower affinity than SB269652” value in experiment [1] (pERK1/2, probe ligand dopamine) was 17 fold.

With `CCN1CCCC1CNC(=O)c1cc(S(N)(=O)=O)ccc1OC` (stereo not drawn) [sulpiride], the “extent of antagonism of dopamine” value is “completely inhibited” in experiment [4] and “completely antagonized” in experiment [5].
